This experiment deals with dsDNA (69 bp) (DNA, duplex) GATACGAGCATCGTGTAGGCATCGTAGGTAATACGGATGTGCTAGCTTATTGAATTCAGAGATCTATGC/GCATAGATCTCTGAATTCAATAAGCTAGCACATCCGTATTACCTACGATGCCTACACGATGCTCGTATC
In words: fluorescence molecular brightness titration (FCS set-up). Particulars: 137 mM Na+, 2.7 mM K+, PBS pH 7.4, 0.002% Tween20, 25 °C, 20 nM YOYO-1, mono-intercalation step, 3.5 bp per site.

For `CN1C(=Cc2cc[n+](CCC[N+](C)(C)CCC[N+](C)(C)CCC[n+]3ccc(C=C4Oc5ccccc5N4C)c4ccccc43)c3ccccc23)Oc2ccccc21`, the K1 is reported as 3.36 ± 0.43 × 10^7 M^-1.
